# Measurements reported in BindingDB's records for doi:10.1021/acs.jmedchem.6b01785 (Chinese Academy of Sciences, 2017).
# Legend:
# [1] = Inhibition of DOT1L in human MV4-11 cells assessed as reduction in cell viability after 72 hrs by alamar blue assay
# [2] = Inhibition of DOT1L in human KOPN8 cells assessed as reduction in cell viability after 72 hrs by alamar blue assay
# [3] = Inhibition of DOT1L in human THP-1 cells assessed as reduction in cell viability after 72 hrs by alamar blue assay
SMILES,IC50 [1],IC50 [2],IC50 [3]
CC(C)(C)c1ccc(-c2nn3c(Cn4nnc5ccccc54)nnc3s2)cc1,13.1 µM,–,–
c1ccc2c(c1)nnn2Cc1nnc2sc(-c3ccc4c(c3)OCO4)nn12,6.75 µM,–,–
"c1ccc(Cc2nn3c(Cn4nnc5ccccc54)nnc3s2)cc1 [3-(1-benzotriazolylmethyl)-6-(phenylmethyl)-[1,2,4]triazolo[3,4-b][1,3,4]thiadiazole]",48.8 µM,–,–
Fc1cccc(-c2nn3c(Cn4nnc5ccccc54)nnc3s2)c1,21.9 µM,28.1 µM,55.8 µM
"c1ccc2c(c1)nnn2Cc1nnc2sc(-c3ccc4c(c3)OCCO4)nn12 [1-{[6-(2,3-dihydro-1,4-benzodioxin-6-yl)[1,2,4]triazolo[3,4-b][1,3,4]thiadiazol-3-yl]methyl}-1H-1,2,3-benzotriazole]",40.7 µM,–,–
Fc1ccc(-c2nn3c(Cn4nnc5ccccc54)nnc3s2)cc1,8 µM,–,–
Cc1ccc(-c2nn3c(Cn4cnc5ccccc54)nnc3s2)cc1C,64 µM,–,–
COc1cccc(-c2nn3c(Cn4nnc5ccccc54)nnc3s2)c1,64.2 µM,–,–
Brc1cccc(-c2nn3c(Cn4cnc5ccccc54)nnc3s2)c1,26.8 µM,–,–
